According to patent US7754445B2, “Method for the enzymatic production of a curing agent and its fluid state” (TMI Europe, priority 2001, dated 2010):

Assay: monitoring the stability of the solution (hypothiocyanite concentration in water leaving the reactor)
Assay type: physicochemical
Excerpt: The hypothiocyanite ions (OSCN^−) are able to react with the sulfhydryl groups of a 5,5′-dithiobis (2-nitrobenzoic acid) molecule which has previously been reduced in the presence of an excess of sodium borohydride.
This reduced molecule absorbs light at a wavelength of 412 nm.
When the hypothiocyanite ions (OSCN^−) oxidize the sulfhydryl groups, the absorbance at 412 nm decreases in proportion to the quantity of ions which are present in the sample, thereby enabling them to be quantified.
The methods described above are used to monitor the change in the concentration of hypothiocyanite ion, i.e. OSCN^−, in solutions leaving the reactor, the results of which are obtained are illustrated in FIGS. 3 and 4, which depict the curve for the changes in the concentration of hypothiocyanite ion, OSCN^−, in the water leaving the reactor over a period of 1 day (FIGS. 4) and 4 days (FIG. 3).

**Q.** Which results are given for N#CSO [OSCN^−, hypothiocyanite ion]?
**A.** concentration of OSCN^− (after 10 hours (FIG. 4)): 500000 µM; fall in concentration of OSCN^− (after 20 hours (FIG. 4)): 50%; residual concentration of hypothiocyanite ion, relative to the initial concentration (after 80 hours (FIG. 3)): 16%; concentration of OSCN^− (initial, solution leaving the reactor (FIG. 4)): 600000 µM
